# Data published in PubChem BioAssay (NCI).
# “And” between values parts separate entries of the source, which are not always exact repeats. Equal values may be shown once.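 Test compounds were applied to cells in 96-well plates for 48 hours at 5 doses. GI50: concentration for 50% inhibition of growth. TGI: concentration producing complete growth inhibition.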
# What was measured:
# Assay in all cases: growth of human tumour cells (NCI), 48 h
# [1] = system: SNB-75 CNS
# [2] = system: SF-539 CNS
# [3] = system: OVCAR-3 ovarian
# [4] = system: CCRF-CEM leukemia
# [5] = system: M14 melanoma
# [6] = system: OVCAR-4 ovarian
# [7] = system: PC-3 prostate
# [8] = system: NCI-H460 lung
# [9] = system: MCF7 breast
# [10] = system: MOLT-4 leukemia
Compound,GI50 [1] [µM],TGI [1] [µM],GI50 [2] [µM],TGI [2],GI50 [3] [µM],TGI [3],GI50 [4] [µM],TGI [4] [µM],GI50 [5] [µM],TGI [5],GI50 [6] [µM],TGI [6],GI50 [7] [µM],TGI [7],GI50 [8] [µM],TGI [8],GI50 [9] [µM],TGI [9] [µM],GI50 [10] [µM],TGI [10] [µM]
CCCc1cc(O)c2c3c(c(=O)oc2c1)CN(C)CC3,22.1,> 100,43.2,> 100 µM,> 100,> 100 µM,69.1,> 100,32.5,> 100 µM,82.8,> 100 µM,> 100,> 100 µM,> 100,> 100 µM,44.8,> 100,44.3,> 100
S=C(N/N=C(/c1ccccc1)c1ccccn1)N1CCCCC1,–,2.92,0.265,1.85 µM and 2.09 µM,< 0.001,1.88 µM and 1.39 µM,< 0.001,0.0332,–,1.66 µM and 0.543 µM,0.119,3.12 µM and 1.43 µM,< 0.001,1.6 µM and 4.08 µM,0.00149,2.31 µM and 1.52 µM,–,4.12,< 0.001,–
Clc1ccc(/C=C/c2cc(N3CCOCC3)c3cc(Cl)c(Cl)cc3n2)cc1,> 100,> 100,> 100,> 100 µM,3.81,> 100 µM,0.302,> 51,> 100,> 100 µM,> 100,> 100 µM,1.61,> 100 µM,> 100,> 100 µM,> 100,> 100,0.428,–
C/C=C/C/C=C/CCC(=O)[C@H]1O[C@H]1C(N)=O,10,25,–,31.8 µM,13.9,27.4 µM,6.02,62.3,13.3,30 µM,–,26.1 µM,–,40.7 µM,17,39.4 µM,12.6,26.1,8.56,52
COc1cc(C(=O)N2N=C(c3ccc(S(C)(=O)=O)cc3)CC2c2ccco2)cc(OC)c1OC (configuration not stated),2.91,> 46,3.12,17.4 µM,1.95,5.46 µM,2.5,> 25.4,5.81,> 87.6 µM,7.45,> 100 µM,2.93,> 100 µM,3.51,> 100 µM,2.89,> 100,3.08,> 100
COc1cc(-c2nc3sccn3c2-c2ccnc(NCCNS(=O)(=O)c3ccc(Cl)cc3)n2)ccc1F,4.48,> 100,6.98,> 100 µM,4.94,> 100 µM,0.48,> 100,3.62,> 100 µM,3.72,> 100 µM,0.577,> 100 µM,5.16,> 100 µM,3.24,> 100,1.42,> 100
CCOc1ccccc1NC(=O)c1cc2ccccc2cc1O,2.89,15.8,3.05,15.8 µM,3.16,8.98 µM,2.58,32.9,3.15,11 µM,3.69,19.6 µM,2.73,10.1 µM,2.94,7.03 µM,2.49,13.1,2.72,7.17
